PubChem BioAssay (NCI)
Several values for one entry are separate records, joined by “and”; a condition that tells them apart may be missing. Equal values may be shown once.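 All cell lines were grown in 96-well plates and treated with compound for 48 hours. GI50 marks 50% less growth. At the TGI there is no net growth.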

Experiments:
Test in all cases: growth of human tumour cells (NCI), 48 h
ACHN renal = test system: ACHN renal
CAKI-1 renal = test system: CAKI-1 renal
K-562 leukemia = test system: K-562 leukemia
NCI-H226 lung = test system: NCI-H226 lung
NCI-H522 lung = test system: NCI-H522 lung
RXF 393 renal = test system: RXF 393 renal
SF-539 CNS = test system: SF-539 CNS
SW-620 colon = test system: SW-620 colon
U251 CNS = test system: U251 CNS
UACC-257 melanoma = test system: UACC-257 melanoma

SMILES	GI50 (ACHN renal)	TGI (ACHN renal)	GI50 (CAKI-1 renal)	TGI (CAKI-1 renal)	GI50 (K-562 leukemia)	TGI (K-562 leukemia)	TGI (NCI-H226 lung) [µM]	GI50 (NCI-H522 lung)	TGI (NCI-H522 lung)	GI50 (RXF 393 renal)	TGI (RXF 393 renal)	GI50 (SF-539 CNS)	TGI (SF-539 CNS)	GI50 (SW-620 colon)	TGI (SW-620 colon)	GI50 (U251 CNS)	TGI (U251 CNS)	GI50 (UACC-257 melanoma)	TGI (UACC-257 melanoma)	GI50 (NCI-H226 lung)
CNc1nc(N(C)C)nc(N(C)C)n1	> 100 µM and 1900 µM	> 100 µM and 3610 µM	> 100 µM and 926 µM	> 100 µM and 2620 µM	> 100 µM and 831 µM	> 100 µM and 3230 µM	2530	> 100 µM and 874 µM	> 100 µM and 3370 µM	> 100 µM and 975 µM	> 100 µM and 3070 µM	> 100 µM and 1350 µM	> 100 µM and 3580 µM	> 100 µM and 1870 µM	> 100 µM and 4030 µM	> 100 µM and 1150 µM	> 100 µM and 2950 µM	> 100 µM and 1640 µM	> 100 µM and 3580 µM	–
COc1cc(/C=C/C(=O)c2c(C)n([O-])c3ccc(Cl)cc3[n+]2=O)cc(OC)c1OC	> 100 µM	> 100 µM	> 100 µM	> 100 µM	15.2 µM	> 100 µM	> 100	> 100 µM	> 100 µM	10.2 µM	30.2 µM	25.4 µM	52.6 µM	> 100 µM	> 100 µM	34.4 µM	> 100 µM	49.6 µM	> 100 µM	65.2 µM
Cc1ccc(S(=O)(=O)Nc2nc3ccccc3nc2Nc2ccc3nsnc3c2)cc1	4.01 µM and 3.75 µM	> 100 µM	3.36 µM and 2.33 µM	> 100 µM	3.7 µM and 2.82 µM	> 100 µM	> 100	3.59 µM and 1.5 µM	31.1 µM and 4.47 µM	6.92 µM and 7.73 µM	35.1 µM and > 100 µM	4.9 µM and 5.13 µM	61.3 µM and > 100 µM	7.95 µM and 5.22 µM	> 100 µM	3.26 µM and 3.65 µM	> 100 µM	3.56 µM and 2.87 µM	27.7 µM and > 100 µM	5.38 µM and 7.55 µM
CCCCCCCCCCCC[n+]1ccc(C(N)=O)cc1	6.06 µM	22 µM	10.7 µM	26.2 µM	2.87 µM	> 100 µM	16.3	2.33 µM	8.38 µM	1.74 µM	5.46 µM	2.36 µM	6.31 µM	3.16 µM	14.4 µM	1.14 µM	3.55 µM	4.24 µM	17.8 µM	3.43 µM
OC(CNc1ccnc2cc(Cl)ccc12)CNC1CCCCC1 (centres undefined)	6.06 µM	19.4 µM	1.84 µM	4.05 µM	2.07 µM	5.17 µM	34.9	2.72 µM	6.55 µM	2.5 µM	8.72 µM	1.76 µM	3.38 µM	4.79 µM	18.3 µM	2.14 µM	5.37 µM	1.78 µM	3.33 µM	12.9 µM
CCCN(CCC)C(=O)[C@H](CC)[C@@H]1CC[C@@H](C)[C@@H]([C@H](C)[C@@H](O)[C@@H](C)C(=O)[C@H](CC)C2O[C@]3(C=C[C@@H](O)[C@]4(CC[C@@](C)([C@H]5CC[C@](O)(CC)[C@H](C)O5)O4)O3)[C@H](C)C[C@@H]2C)O1 (some centres undefined)	3.18 µM	10.3 µM	1.95 µM	8.7 µM	2.68 µM	13 µM	5.3	1.82 µM	4.56 µM	1.71 µM	4.04 µM	2.06 µM	4.2 µM	3.23 µM	10.6 µM	2.87 µM	9.87 µM	2.84 µM	9.83 µM	1.93 µM
C=C(C)[C@H](O)C(O)CC(C)[C@@H]1CCC23CC12CCC1[C@@]2(C)CCC(OC(C)=O)C(C)(C)C2CC(OC2OC(COC(C)=O)C(O)C(O)C2O)[C@]13C (some centres undefined)	–	12.6 µM	–	12.1 µM	–	10.8 µM	11.2	–	9.91 µM	–	8.49 µM	–	12.8 µM	–	12 µM	–	10.1 µM	–	12 µM	–
Oc1ccc(N=Nc2ccc(N=Nc3ccccc3)cc2)cc1	1.49 µM	5.59 µM	1.45 µM	4.12 µM	0.615 µM	12.7 µM	48.2	0.832 µM	3.94 µM	14.3 µM	61.4 µM	0.712 µM	3.03 µM	1.51 µM	13.9 µM	10.4 µM	26.9 µM	4.23 µM	17 µM	18.3 µM
O=C1/C(=C/c2ccc(Cl)cc2)COc2ccc(O)c(O)c21	1.14 µM	2.36 µM	1.07 µM	2.28 µM	0.321 µM	> 100 µM	5.18	0.182 µM	0.426 µM	1.34 µM	2.75 µM	0.44 µM	1.87 µM	0.838 µM	2.94 µM	0.731 µM	2.06 µM	1.65 µM	3.88 µM	1.86 µM
CC(C)C[C@@H]1NC(=O)[C@@H]2CCCN2C(=O)[C@@H]2CCCN2C(=O)[C@H](CC(C)C)NC(=O)[C@H](CO)NC(=O)[C@H](CCCCN)NC(=O)[C@H]([C@H](C)O)NC(=O)[C@@H]2CCCC[C@@H](NC1=O)C(=O)N[C@@H](Cc1ccccc1)C(=O)N1CCC[C@H]1C(=O)N[C@@H](CC(=O)O)C(=O)NCC(=O)N[C@@H](CCCN=C(N)N)C(=O)N2	> 50 µM	> 50 µM	> 50 µM	> 50 µM	> 50 µM	> 50 µM	> 50	> 50 µM	> 50 µM	> 50 µM	> 50 µM	> 50 µM	> 50 µM	> 50 µM	> 50 µM	> 50 µM	> 50 µM	> 50 µM	> 50 µM	> 50 µM
N#Cc1nc2cc(F)c(F)cc2nc1-c1ccc(Cl)cc1	10.4 µM	43.8 µM	15.1 µM	38.5 µM	2.99 µM	> 27.8 µM	> 63.2	13.5 µM	> 48.2 µM	6.23 µM	18.3 µM	> 60.6 µM	> 100 µM	16 µM	50.1 µM	10.4 µM	25 µM	22.1 µM	> 58.3 µM	3.44 µM
C[CH2][Sn]([Cl])([Cl])[CH2]C	24.1 µM	58.5 µM	8.91 µM	25.8 µM	18.6 µM	> 69 µM	42.6	1.16 µM	2.67 µM	17.5 µM	32.7 µM	40.1 µM	> 100 µM	20.8 µM	39.8 µM	27.4 µM	> 59.1 µM	18.4 µM	35 µM	19.9 µM
